# From patent US20130190275A1, “COMBINED THERAPIES OF ANTIPSYCHOTIC DRUGS AND TETRACYCLINES IN THE TREATMENT OF PSYCHIATRIC DISORDERS” (MOR RESEARCH APPLICATIONS LTD., priority 2006, published 2013)
# Tests used:
# MK801 treated rats [1] = test: Habituation of the Acoustic Startle Response (ASR), MK801 animal model; assay type: in vivo, rat
# Protocol: Acoustic Startle Response (ASR) and Pre-Pulse Inhibition (PPI): Both experimental paradigms were performed in a room that was adjacent to the laboratory facilities and the animal stall and that was not used for other experiments. The animals were tested in squad of two with startle chambers counterbalanced across the different experimental groups. Startle response and prepulse inhibition were measured using two ventilated startle chambers (SR-LAB system, San Diego Instruments, San Diego, Calif.). Each chamber consisted of a Plexiglas cylinder resting on a platform inside a sound-attenuated, ventilated chamber. A high-frequency loudspeaker inside the chamber produced both a continuous broadband background noise of 70 dB and the various acoustic stimuli. Movement inside the tube was detected by a piezoelectric accelerometer below the frame. The amplitude of the whole body startle to an acoustic pulse was defined as the average of 100 one-msec accelerometer readings collected from pulse onset. These signals were then digitized and stored by a computer. Sound levels within each test chamber were measured routinely using a sound level meter (Radio Shack) to ensure consistent presentation. The SR-LAB calibration unit was used routinely to ensure consistent stabilimeter sensitivity between test chambers and over time (Swerdlow and Geyer, 1998, Schizophrenia Bulletin, 24(2), 285-301).
# (§1) Fifteen minutes before the behavioral procedures conducted at the fourth day, the subject was injected i.p. with an 0.1 mg/kg dose of MK801 or saline, for a total volume of 1 ml per kg of body weight. Next, the subjects passed the three behavioral procedures, described in the following paragraphs.
# ASR and PPI were measured using two startle chambers, with each chamber consisting of a Plexiglas cylinder resting on a platform inside a sound-attenuated, ventilated chamber (see also materials section). The animals were tested in pairs with startle chambers counterbalanced across the different experimental groups.
# The ASR test measured the ability of the animal to habituate to repetitive loud pulses of noise. […] Movement inside the tube was detected by a piezoelectric accelerometer below the frame. The amplitude of the whole body startle to an acoustic pulse was defined as the average of 100 one-msec accelerometer readings collected from pulse onset. […]
# Acoustic Startle Response (ASR): The decrease in ASR in the groups was calculated as the percent of amplitude decrease between the mean of the first five amplitude values and the mean of the last 25 amplitude values.
# Percent habituation=100×[(average startle amplitude in Block 1)−(average startle amplitude in Block 5)/(average startle amplitude in Block 1)]. Results were analyzed by two-way ANOVA a between-subject measure of ‘group’ (treatment group).
# [2] = test system: patients who experience first psychotic episode; test: GRAF score, adjuvant study; assay type: in vivo, human; conditions: atypical antipsychotic drug+minocycline 200 mg/day vs +placebo; group x time p<0.05
# Protocol: The study was carried out in patients who experience first psychotic episode, and has followed the patient for a total duration of 6 months. As the study examines Minocycline as an adjuvant drug, the sample includes patients receiving one of the following atypical anti-psychotic drugs: Risperdal, Zyprexa, Geodon, Seroquel, and Leponex. […] Initial evaluation included the following clinical measures: • SCID (for reliability of diagnosis) • CGI (Clinical Global Impression) • PANSS (Positive and Negative Syndrome Scale for Schizophrenia) • SANS (Scale for the Assessment of Negative Symptoms) • Calgary Depression Scale for Schizophrenia • GAF • GRAF • Insight and Treatment Attitudes Questionnaire • QLS (Quality of Life Scale) • Multinomah Community Ability Scale • Extrapyramidal Side Effects Scale. Minocycline was given as an add-on therapy. […] Clinical status was evaluated by the aforementioned scales at the onset of the study, every week for the first 6 weeks, and then once a month for the rest of the study period. Cognitive capabilities were assessed by the neuropsychological battery of tests according to the following schedule: upon initiation of the study (referred to as visit 1 in FIGS. 5-8), 3 months (referred to as visit 2 in FIGS. 5-8), and 6 months (referred to as visit 3 in FIGS. 5-8) after the start of the study. […]
# MK801 treated rats [3] = test: Morris Water Maze (MWM) task, MK801 animal model of schizophrenia; assay type: in vivo, rat
# Protocol: Morris Water Maze (MWM): The MWM consisted of a water pool (diameter=1.8 m; depth=0.6 m) containing water at 26±1° C. A hidden platform was located 1.5 cm below the water surface. Within the testing room, only distal visuo-spatial cues were available to the rats for location of the submerged platform. A video camera was placed above the center of the pool for tracking the rat, and a video tracking system (Noldus Information Technology b.v., Wageninpen, The Netherlands) with online digital output, directly fed data into a computer and analyzed. Data were analyzed by using an Etho-Vision automated tracking system (Noldus Information Technology).
# as §1
# The MWM, a hippocampal-dependent visuo-spatial learning task, was used to assess the subjects' spatial learning/memory. The ability of an animal to locate a hidden platform submerged under water by using extra-maze cues from the test environment was examined. The rats were trained in a pool 1.8 m in diameter and 0.6 m high, containing water at 26±1° C. A 10 cm square transparent platform was hidden in a constant position in the pool submerged 1 cm below the water level. Within the testing room only distal visuo-spatial cues were available to the rats for location of the submerged platform.
# Rats were given four trials per day, to find the hidden platform (acquisition phase). The escape latency, i.e., the time required by the rat to find and climb onto the platform, was recorded for up to 120 sec. Each rat was allowed to remain on the platform for 30 sec, and was then removed to its home cage.
# Morris Water Maze (MWM): Escape latency, the time between placing the rat in the pool until it located the platform, was measured during behavioral testing. The escape latency was analyzed by means of […] repeated measures analysis of variance (ANOVA) with a between-subjects measure of ‘group’ (treatment group) and a within-subjects measure of ‘trail’ (effects amongst groups in the four different trials).
# The MWM test was then performed (see FIG. 1 for results). A significant main effect of ‘group’, ‘trail’ and a significant ‘group’×‘trails’ interaction was found in the repeated measured ANOVA for the MWM task [F(5,35)=9.699, p<0.001; F(3,33)=31.551, p<0.001; F(15,91)=1.824, p<0.05; respectively].
compound,measurement,setting,value
CN(C)c1ccc(O)c2c1C[C@H]1C[C@H]3[C@H](N(C)C)C(O)=C(C(N)=O)C(=O)[C@@]3(O)C(O)=C1C2=O [minocycline],percent habituation of the startle response (% habituation),MK801 treated rats [1]; drug alone (no MK801) vs saline treated animals,no effect on habituation of ASR
same,percent habituation of the startle response (% habituation),"MK801 treated rats [1]; drug+MK801 0.1 mg/kg i.p., minocycline 35 mg/kg x 3 days pretreatment, haloperidol 0.4 mg/kg i.p.",able to prevent the deficits induced by MK801
same,GRAF score,[2],greater improvement of the GRAF score
same,"escape latency, impairments induced by MK801","MK801 treated rats [3]; main procedure: minocycline 35 mg/kg x 3 days, MK801 0.1 mg/kg i.p.",reduce the impairments induced by MK801
same,"escape latency, trail 4","MK801 treated rats [3]; minocycline 35 mg/kg before MK801, vs MK801 group, p<0.05",significant difference when compared to the MK801 group
same,"escape latency, improvement compared with haloperidol",MK801 treated rats [3]; minocycline 35 mg/kg+MK801 vs haloperidol 0.4 mg/kg+MK801,somewhat more significant than that caused by haloperidol
same,dose dependence of effect in the MWM task,"MK801 treated rats [3]; minocycline 20, 25, 30, 35 mg/kg before MK801",good dose dependent effect
same,escape latency,"MK801 treated rats [3]; minocycline 20 and 25 mg/kg for three consecutive days before MK801, vs saline and MK801 groups",no significant differences with the MK801 treated rats
same,escape latency,"MK801 treated rats [3]; minocycline 30 and 35 mg/kg for three consecutive days before MK801, vs saline group",did not differ from the saline treated group
